Consider 23 compounds from PubChem BioAssay (NCI).

What all share (assay): NCI anticancer screen, dose series, 48 h
The subject of test [1] is KM12 colon.
Test [2] relates to A498 renal.
The subject of test [3] is DU-145 prostate.
In test [4] the test system is SK-MEL-28 melanoma.
The test system of test [5] is ACHN renal.
Test [6] deals with HCT-116 colon.
Test [7] relates to LOX IMVI melanoma.
Test [8] concerns RPMI-8226 leukemia.
For test [9], the system named is SR leukemia.
Test [10] relates to TK-10 renal.
The subject of test [11] is UO-31 renal.
The test system of test [12] is SF-539 CNS.

Structures are written as SMILES.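 48-hour exposure; five concentrations; linearly interpolated endpoints. Definition used: TGI = concentration required for complete inhibition of growth.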

`COc1ccccc1N1C(=O)CSC1c1cc(OC)c(OC)c(OC)c1` (stereo unspecified): the TGI in test [1], in test [2], in test [3], in [4], in test [5] and in test [6] was over 100 µM each time. In addition, the TGI in test [7], in test [8], in test [9], in test [10], in [11] and in test [12] was over 100 µM throughout.
With `CSC1=C(C#N)C(=O)N(c2ccc(C)cc2)C(=O)C1C#N` (stereo unspecified), the TGI in test [1], in [2], in [3], in test [4], in [5] and in test [6] was over 100 µM throughout. The TGI in [7], in test [8], in test [9], in test [10], in test [11] and in test [12] was over 100 µM throughout.
For `CCCNCC(O)CNc1ccc(NCC(O)CNCCC)c2c1C(=O)c1ccccc1C2=O` (stereo unspecified), the TGI in test [1] turned out to be 17.3 µM; in test [2] it was 23.5 µM; in [3], 20.2 µM; in [4] it was 9.69 µM; in test [5], 18.3 µM; in [6] it was 8.31 µM. Besides, the TGI in test [7] was determined as 3.62 µM; in test [8], 6.05 µM; in test [9], 11 µM; in test [10] it was 22.2 µM; in test [11], 31.8 µM; in test [12], 5.11 µM.
For `COC(=O)c1ccc(C)cc1C1CN=NC12Cc1cc(C)ccc1C2=O` (stereo unspecified), the TGI is 44.1 µM in [1]; 55.5 µM in test [2]; 97.6 µM in test [3]; over 100 µM in test [4]; over 100 µM in test [5]; 28.6 µM in [6]. Besides, the TGI is 42.9 µM in test [7]; 66.2 µM in test [8]; 32.2 µM in test [9]; 71.7 µM in test [10]; over 85.1 µM in test [11]; 36.2 µM in [12].
For `CN1c2ccccc2C(=O)NC12CCNCC2`, the TGI in test [1], in test [2], in test [3], in test [4], in test [5] and in test [6] was over 100 µM throughout. For the same compound, the TGI in test [7], in [8], in [9], in [10], in test [11] and in [12] was over 100 µM throughout.
Consider `COc1cc2c(cc1O)Cc1c-2[n+](C)cc2cc(OC)c(OC)cc12`, for which the TGI in test [1], in [2], in test [3], in [4], in test [5] and in [6] was over 100 µM in each case. The TGI in test [7] is over 100 µM; in test [8] it was over 100 µM; in [9], over 22.1 µM; in [10], over 100 µM; in test [11], over 100 µM; in test [12] it was 7.46 µM.
For the compound `C/C(=N\O)C1CC2C=C(C#N)C1N(Cc1ccccc1)C2` (stereo unspecified), the TGI in test [1], in test [2], in test [3], in [4], in test [5] and in [6] was over 100 µM in each case. For the same compound, the TGI in test [7], in test [8], in [9], in [10], in [11] and in test [12] was over 100 µM each time.
As for `COCC12CCC(OC)C34C5CC6(O)C(OC)C=C(C5C6OC(=O)c5ccccc5)C(C(OC)C13)C4N(C)C2` (stereo unspecified), the TGI in test [1], in [2], in test [3], in test [4], in test [5] and in test [6] was over 100 µM throughout. In addition, the TGI in test [7], in test [8], in test [9], in [10], in test [11] and in test [12] was over 100 µM throughout.
Turning to `C=C1CC(C)(COc2cc(=O)oc3ccccc23)OC1=O` (stereo unspecified), the TGI is 27.3 µM in test [1]; 8.74 µM in test [2]; 19 µM in test [3]; 10.8 µM in [4]; 15.8 µM in [5]; 9.64 µM in test [6]. The TGI in test [7] turned out to be 11.5 µM; in test [8], 4.18 µM; in [9] it was 11.2 µM; in [10], 5.16 µM; in [11], 24.8 µM; in test [12], 12.6 µM.
Take `COc1ccc2c(c1)-c1nc(=O)n(CCCN(C)C)c3ccc([N+](=O)[O-])c(c13)N2`: the TGI stood at 4.02 µM in [1]; 31 µM in test [2]; 17.1 µM in test [3]; 4.3 µM in test [4]; 15 µM in test [5]; 12.8 µM in test [6]. In addition, the TGI in test [7] amounted to 3.24 µM; in test [8], 0.694 µM; in test [9], 2.44 µM; in test [10], 7.17 µM; in [11] it was 4.73 µM; in test [12], 9.63 µM.
On to `O=C(CCc1ccc(O)c(O)c1)NCCc1cc(O)c(O)c(O)c1`, for which the TGI was over 100 µM in test [1]; over 100 µM in [2]; over 100 µM in [3]; over 100 µM in test [4]; over 100 µM in test [5]; 33 µM in test [6]. For the same compound, the TGI in [7] was 31.7 µM; in test [8] it was over 100 µM; in [9] it was over 100 µM; in test [10] it was over 100 µM; in test [11], over 100 µM; in test [12], over 100 µM.
With `O=C(NCCc1ccccc1)c1cc(/C=C/c2cc(O)ccc2O)ccc1O`, the TGI in test [1] was 24.6 µM; in test [2], 13.6 µM; in test [3], 28.1 µM; in test [4], 10.4 µM; in test [5], 5.59 µM; in test [6] it was 4.19 µM. Besides, the TGI was 17.5 µM in [7]; 7.21 µM in [8]; 8.58 µM in test [9]; 7.16 µM in test [10]; 2.86 µM in [11]; 5.94 µM in [12].
Regarding `COC(=O)CC(CNC(=O)OCc1ccccc1)OCc1ccc(OC)cc1` (stereo unspecified), the TGI in test [1], in test [2], in [3], in test [4], in test [5] and in test [6] was over 100 µM in each case. Besides, the TGI in test [7], in test [8], in test [9], in test [10], in [11] and in test [12] was over 100 µM throughout.
For the compound `CCCCCCCc1cscc1-c1cscc1Br`, the TGI in test [1] is 80.7 µM; in [2] it was over 100 µM; in test [3] it was over 100 µM; in test [4] it was over 100 µM; in test [5], over 100 µM; in test [6] it was over 100 µM. Further, the TGI was 36.4 µM in test [7]; 47 µM in test [8]; 41.3 µM in test [9]; over 100 µM in [10]; over 100 µM in [11]; over 100 µM in test [12].
Turning to `OCC1OC(n2cnc3c(SCc4ccccc4)ncnc32)C(O)C1O` (stereo unspecified), the TGI is over 100 µM in test [1]; over 31.4 µM in test [2]; over 100 µM in test [3]; over 100 µM in test [4]; over 100 µM in test [5]; over 100 µM in [6]. The TGI in [7], in test [8], in test [9], in test [10], in [11] and in test [12] was over 100 µM throughout.
Regarding `Cc1cccc(N=C/C=C(\Cl)c2ccc3ccccc3c2)c1`, the TGI was 41 µM in [1]; over 100 µM in test [2]; 36.9 µM in test [3]; 63.6 µM in [4]; 30.7 µM in test [5]; 9.02 µM in [6]. The TGI is 9.27 µM in test [7]; 29 µM in test [8]; 8.24 µM in test [9]; 50.8 µM in [10]; 34.4 µM in test [11]; 40.7 µM in test [12].
As for `[N-]=[N+]=CC(=O)OCC1NC(=O)C(COC(=O)C=[N+]=[N-])NC1=O` (stereo unspecified), the TGI in test [1], in [2], in test [3], in test [4], in [5] and in test [6] was over 100 µM each time. Besides, the TGI in [7], in test [8], in [9], in test [10], in test [11] and in test [12] was over 100 µM throughout.
`NC(Cc1ccccc1)c1nn[nH]n1` (stereo unspecified): the TGI in test [1], in test [2], in test [3], in test [4], in [5] and in [6] was over 100 µM each time. Besides, the TGI in [7], in [8], in test [9], in test [10], in [11] and in test [12] was over 100 µM each time.
Regarding `Nc1nc(Br)nc2ncn(C3CC(O)C(CO)O3)c12` (stereo unspecified), the TGI in test [1], in test [2], in test [3], in test [4], in test [5] and in test [6] was over 100 µM throughout. Besides, the TGI in [7] was over 100 µM; in test [8], over 100 µM; in [9], over 81 µM; in [10], over 100 µM; in [11] it was over 100 µM; in [12] it was over 100 µM.
Turning to `CC(C)CC(NC=O)C(=O)NC(Cc1ccccc1)NC(=O)CNC(=O)C(C)NC(=O)C(N)Cc1ccc(O)cc1` (stereo unspecified), the TGI in test [1], in test [2], in test [3], in test [4], in test [5] and in test [6] was over 100 µM each time. Also, the TGI in test [7], in test [8], in test [9], in test [10], in [11] and in [12] was over 100 µM throughout.
In the case of `O=C(c1ccccc1)C(Nc1ccc2ccccc2c1)c1ccccc1` (stereo unspecified), the TGI in [1] was over 81.5 µM; in test [2] it was 69.6 µM; in test [3] it was over 100 µM; in [4] it was over 100 µM; in [5], over 100 µM; in test [6], over 100 µM. The TGI in [7] was over 100 µM; in test [8], 33.7 µM; in [9] it was over 71.8 µM; in test [10], over 100 µM; in test [11] it was over 100 µM; in test [12], over 100 µM.
`Cc1cnc2c(c1)C(=O)N(c1ccc([N+](=O)[O-])cc1)S2(=O)=O`: the TGI in test [1], in test [2], in [3], in [4], in test [5] and in [6] was over 100 µM each time. Also, the TGI in test [7] was over 100 µM; in test [8] it was over 100 µM; in [9], 99.2 µM; in test [10] it was over 100 µM; in test [11], over 100 µM; in [12], over 100 µM.
On to `CC(C)OC(=O)NNc1cccc(Cl)c1`, for which the TGI in test [1], in test [2], in test [3], in test [4], in test [5] and in [6] was over 100 µM in each case. In addition, the TGI in [7], in test [8], in test [9], in test [10], in test [11] and in [12] was over 100 µM in each case.
